What follows are compounds tested against T1, Recombinant human Syk (GST-Syk kinase fusion protein) (Homo sapiens, UniProt P43405) (assay: Syk Kinase Test (Kinase Glo Luminescence Kinase test)). Conditions: 1 μM test substance; negative control (no kinase) = 100% inhibition, positive control (no test substance) = 0% inhibition.
T1 construct: made in house
Format: biochemical
Experimental: The catalytic activity of the GST-Syk kinase fusion protein was determined using the Kinase Glo® Luminescence Kinase test of Messrs Promega. In this homogeneous test the amount of ATP remaining after the kinase reaction has been carried out is quantified by a luciferin-luciferase reaction using luminescence. The luminescence signal obtained correlates with the amount of ATP still present and thus correlates inversely with the activity of the protein kinase.
The test substances were dissolved in 100% DMSO at a concentration of 10 mM and diluted in DMSO to a concentration of 1 mM. […] GST-Syk was diluted to 6.0 nM in the test buffer and 10 μl of this dilution were used in the kinase test (final concentration of Syk=4 nM in a total volume of 15 μl).
Positive controls are the reaction mixtures that contain no test substance; negative controls are reaction mixtures that contain no kinase.
After 60 minutes, 10 μl Kinase-Glo® solution (Promega, Cat. # V6712) (heated to ambient temperature) are added to each well and incubation is continued for a further 15 minutes at ambient temperature.
The output file of the “MicroBeta TRILUX” is a text file that contains the well number and measurements obtained. […] Then from this the % inherent value for the measurement of each substance concentration was calculated using an “MS-Excel-VB macro”. […] The IC50 values were calculated from the % inhibition values using “GraphPadPrism” software (Version 5) (GraphPad Software Inc.).

| SMILES | % INHB SYK at 1 μM [%] |
| --- | --- |
| OCCCCOc1nc(-c2ccc(N3CCOCC3)cc2)cc2ncccc12 [Example 4, 4-[7-(4-morpholinophenyl)-[1,6]naphthyridin-5-yloxy]-butan-1-ol] | 94.4 |
| COc1cc(-c2cc3ncccc3c(NC[C@@H]3CCNC3)n2)ccc1N1CCOCC1 [Example 10] | 98.6 |
| O[C@H]1CC[C@@H](Nc2nc(-c3ccc(N4CCOCC4)cc3)cc3ncccc23)CC1 [Example 62, 4-[7-(4-morpholin-4-yl-phenyl)-[1,6]naphthyridin-5-ylamino]-cyclohexanol] | 76.8 |
| c1cnc2cc(-c3ccc(N4CCOCC4)cc3)nc(NCC3CNCCO3)c2c1 (stereo not shown) [Example 63] | 85.4 |
| Cc1cc(-c2cc3ncccc3c(OC[C@H]3CCCNC3)n2)ccc1N1CCOCC1 [Example 66, (S)-4-(2-methyl-4-(5-(piperidine-3-ylmethoxy)-[1,6]naphthyridin-7-yl)phenyl)morpholine] | 102.8 |
| OCC#Cc1nc(-c2ccc(N3CCOCC3)cc2)cc2ncccc12 [Example 82, 3-[7-(4-morpholin-4-yl-phenyl)-[1,6]naphthyridin-5-yl]-prop-2-yn-1-ol] | 87.1 |
| CCNC(=O)NC1CN(c2nc(-c3ccc(N4CCN(C)CC4)cc3)cc3ncccc23)C1 [Example 92, 1-ethyl-3-(1-{7-[4-(4-methyl-piperazin-1-yl)-phenyl]-[1,6]naphthyridin-5-yl}-azetidin-3-yl)-urea] | 77.3 |
| CCNC(=O)N1CCCC1CNc1nc(-c2ccc(N3CCN(C)CC3)cc2)cc2ncccc12 (stereo not shown) [Example 93, 2-({7-[4-(4-methyl-piperazin-1-yl)-phenyl]-[1,6]naphthyridin-5-ylamino}-methyl)-pyrrolidin-1-carboxylic acid ethylamide] | 91.5 |
| NC(=O)N1CCN(c2nc(-c3ccc(N4CCOCC4)cc3)cc3ncccc23)CC1 [Example 98, 4-[7-(4-morpholin-4-yl-phenyl)-[1,6]naphthyridin-5-yl]-piperazine-1-carboxylic acid amide] | 86.8 |
| CC(=O)N[C@H]1CC[C@@H](Nc2nc(-c3ccc(N4CCOCC4)cc3)cc3ncccc23)CC1 [Example 113, N-{4-[7-(4-morpholin-4-yl-phenyl)-[1,6]naphthyridin-5-ylamino]-cyclohexyl}-acetamide] | 94.7 |

The next lines start with the values.

| % INHB SYK at 1 μM [%] | SMILES |
| --- | --- |
| 82.0 | c1cnc2cc(-c3ccc(N4CCOCC4)cc3)nc(Nc3ccc4cn[nH]c4c3)c2c1 [Example 1, 5-[(1H-indazol-6-yl)amino]-7-(4-morpholinophenyl)-[1,6]naphthyridine] |
| 72.6 | NC(=O)c1cccnc1Nc1nc(-c2ccc(N3CCOCC3)cc2)cc2ncccc12 [Example 2, 2-[7-(4-morpholin-4-yl-phenyl)-[1,6]naphthyridin-5-ylamino]-nicotinamide] |
| 101.8 | CNc1nc(-c2ccc(N3CCOCC3)cc2)cc2ncccc12 [Example 3] |
| 86.7 | CN[C@H]1CC[C@@H](Nc2nc(-c3ccc(N4CCOCC4)cc3)cc3ncccc23)CC1 [Example 9, N-methyl-N′-[7-(4-morpholin-4-yl-phenyl)-[1,6]naphthyridin-5-yl]-cyclohexane-1,4-diamine] |
| 82.9 | CCOc1nc(-c2ccc(N3CCOCC3)cc2)cc2ncccc12 [Example 79, 5-Ethoxy-7-(4-morpholin-4-yl-phenyl)-[1,6]naphthyridine] |
| 95.3 | NC(=O)C1CCN(c2nc(-c3ccc(N4CCOCC4)cc3)cc3ncccc23)C1 (stereo not shown) [Example 107, 1-[7-(4-morpholin-4-yl-phenyl)-[1,6]naphthyridin-5-yl]-pyrrolidine-3-carboxylic acid amide] |
| 55.2 | c1ccc(-c2nc(-c3ccc(N4CCOCC4)cc3)cc3ncccc23)cc1 [Example 132, (4-(5-phenyl-1,6-naphthyridin-7-yl)phenyl)morpholine] |
| 43.3 | CCc1nc(-c2ccc(N3CCOCC3)cc2)cc2ncccc12 [Example 140, (4-(5-ethyl-[1,6]naphthyridin-7-yl)phenyl)morpholine] |
| 70.3 | C#Cc1nc(-c2ccc(N3CCOCC3)cc2)cc2ncccc12 [Example 142, (4-(5-ethynyl-[1,6]naphthyridin-7-yl)phenyl)morpholine] |
